Experimental data published in ChEMBL document CHEMBL1201862, “PubChem BioAssay data set” (2004).
The source made the active and inactive calls. Rule as the data show it: actives have a measured IC50 and inactives only a lower limit.

Biological target: Envelope glycoprotein gp160 (Human immunodeficiency virus 1, UniProt Q6QLK5)
Assay: cell-free HIV fusion peptide-binding blockers – biochemical, uHTS, fluorescence dequenching, […] (AID 1986)

Chain of Envelope glycoprotein gp160 (Q6QLK5 whole entry, the tested form may be a part): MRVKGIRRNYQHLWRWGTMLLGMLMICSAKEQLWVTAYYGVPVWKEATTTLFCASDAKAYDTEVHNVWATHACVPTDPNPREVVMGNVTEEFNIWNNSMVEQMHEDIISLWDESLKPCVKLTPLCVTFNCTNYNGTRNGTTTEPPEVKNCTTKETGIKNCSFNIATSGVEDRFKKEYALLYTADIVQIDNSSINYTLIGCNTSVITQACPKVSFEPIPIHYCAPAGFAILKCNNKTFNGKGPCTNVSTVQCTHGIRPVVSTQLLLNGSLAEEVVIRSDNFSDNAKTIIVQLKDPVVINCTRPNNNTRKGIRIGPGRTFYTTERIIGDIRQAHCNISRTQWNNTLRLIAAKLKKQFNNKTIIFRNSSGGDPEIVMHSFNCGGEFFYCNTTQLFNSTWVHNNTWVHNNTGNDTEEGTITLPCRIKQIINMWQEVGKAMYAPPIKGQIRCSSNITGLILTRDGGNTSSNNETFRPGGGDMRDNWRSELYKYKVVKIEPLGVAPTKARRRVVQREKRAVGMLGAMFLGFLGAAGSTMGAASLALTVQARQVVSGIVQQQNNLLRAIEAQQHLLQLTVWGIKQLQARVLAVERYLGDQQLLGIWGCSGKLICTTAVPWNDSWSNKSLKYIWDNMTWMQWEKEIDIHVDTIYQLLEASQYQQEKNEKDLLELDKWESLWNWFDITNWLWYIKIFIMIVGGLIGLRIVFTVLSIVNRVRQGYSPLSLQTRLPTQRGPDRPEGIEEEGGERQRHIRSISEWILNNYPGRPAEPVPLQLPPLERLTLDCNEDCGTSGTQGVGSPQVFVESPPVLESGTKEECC

COC(=O)c1sc(-c2ccc(C(C)(C)C)cc2)cc1NC(=O)CSCC(=O)O
IC50: 15.4 µM (active)

O=C(CCN1C(=O)/C(=C/c2ccccc2Cl)SC1=S)Nc1ccccc1C(=O)O
IC50: 19.4 µM (active)

COc1cc(/C=C2\C(=N)N3N=C(S(C)(=O)=O)SC3=NC2=O)cc(OC)c1OCCOc1ccc(C)cc1
IC50: 11 µM (active)
